Reference: ChEMBL document CHEMBL1122257, “Synthesis and anticonvulsant activity of some tetracyclic indole derivatives” (1983)

Assays:
Format in all cases: functional
Rattus norvegicus [1] = test: Tested anticonvulsant activity in 6 rats after oral administration of 30 mg/kg po dose for rotarod performance; 0/6
Rattus norvegicus [2] = test: Tested for anticonvulsant activity in 3 rats after oral administration of 30 mg/kg po dose for protection against maximal electroshock in rat MES test; 0/3
Rattus norvegicus [3] = test: Anticonvulsant activity in rats after oral administration of 30 mg/kg dose(effective dosage)
Rattus norvegicus [4] = test: Tested for anticonvulsant activity in 3 rats after oral administration of 30 mg/kg po dose for protection against maximal electroshock in rat MES test; 2/3
Rattus norvegicus [5] = test: Tested for anticonvulsant activity in 3 rats after oral administration of 30 mg/kg po dose for protection against maximal electroshock in rat MES test; 3/3
Rattus norvegicus [6] = test: Tested anticonvulsant activity in 6 rats after oral administration of 300 mg/kg po dose for rotarod performance; 0/6
Rattus norvegicus [7] = test: Tested for anticonvulsant activity in 3 rats after oral administration of 30 mg/kg po dose for protection against maximal electroshock in rat MES test; 1/3
Rattus norvegicus [8] = test: Tested anticonvulsant activity in 6 rats after oral administration of 30 mg/kg po dose for rotarod performance; 1/6
Rattus norvegicus [9] = test: Anticonvulsant activity in rats after oral administration of 30 mg/kg dose for rotarod performance; 0/6

Row | SMILES | Reactors/Test group (Rattus norvegicus [1]) | Reactors/Test group (Rattus norvegicus [2]) | also measured
1 | CN(C)C(=O)C1CCc2cccc3c4c(n1c23)CCCCC4 (stereo unspecified) | 0 | 0 | –
2 | CN(C)CC1Cc2cccc3c4c(n(c23)C1)CCCCC4 (stereo unspecified) | 0 | 0 | –
3 | CN(C)CC1Cc2cccc3c4c(n1c23)CCCCCC4 (stereo unspecified) | 0 | 0 | –
4 | CN(C)CC1CCc2cccc3c4c(n1c23)CCCCC4 (stereo unspecified) | 0 | – | ED50 (Rattus norvegicus [3]): 78.9 mg/kg; Reactors/Test group (Rattus norvegicus [4]): 2
5 | CN(C)CCC1CCc2cccc3c4c(n1c23)CCCCC4 (stereo unspecified) | 0 | – | Reactors/Test group (Rattus norvegicus [5]): 3; ED50 (Rattus norvegicus [3]): 27.4 mg/kg
6 | CN(C)CC1CCc2cccc3c4c(n1c23)-c1ccccc1SC4 (stereo unspecified) | 0 | 0 | –
7 | CN(C)CC1Cc2cccc3c4c(n1c23)CCCC4 (stereo unspecified) | 0 | – | Reactors/Test group (Rattus norvegicus [5]): 3; ED50 (Rattus norvegicus [3]): 19.2 mg/kg
8 | CN(C)CCC1CCc2cccc3c4c(n1c23)CCN(C)C4 (stereo unspecified) | 0 | 0 | –
9 | CN(C)CC1CCc2cccc3c4c(n1c23)CCCCCC4 (stereo unspecified) | 0 | 0 | –
10 | CN(C)CC1Cn2c3c(c4cccc1c42)CCCCCC3 (stereo unspecified) | 0 | 0 | –
11 | CN(C)CC1CCc2cccc3c4c(n1c23)CCC4 (stereo unspecified) | 0 | – | Reactors/Test group (Rattus norvegicus [5]): 3; ED50 (Rattus norvegicus [3]): 12.5 mg/kg
12 | CN(C)CC1Cn2c3c(c4cccc1c42)CCCCC3 (stereo unspecified) | 0 | 0 | –
13 | CN(C)CC1CCc2cccc3c4c(n1c23)CCCC4 (stereo unspecified) | – | – | Reactors/Test group (Rattus norvegicus [6]): 0; Reactors/Test group (Rattus norvegicus [5]): 3
14 | CN1CCN(C(=O)C2CCc3cccc4c5c(n2c34)CCCCC5)CC1 (stereo unspecified) | 0 | 0 | –
15 | CN(C)CCC1CCc2cccc3c4c(n1c23)CCCC4 (stereo unspecified) | 0 | – | Reactors/Test group (Rattus norvegicus [4]): 2
16 | CNC(=O)C1CCc2cccc3c4c(n1c23)CCCC4 (stereo unspecified) | 0 | 0 | –
17 | CNC(=O)C1CCc2cccc3c4c(n1c23)CCC4 (stereo unspecified) | 0 | 0 | –
18 | CN(C)CCC1CCc2cccc3c4c(n1c23)CCCCCC4 (stereo unspecified) | 0 | 0 | –
19 | CN(C)CC1CCc2cccc3c4c(n1c23)-c1ccccc1CC4 (stereo unspecified) | – | – | Reactors/Test group (Rattus norvegicus [7]): 1; Reactors/Test group (Rattus norvegicus [8]): 1
20 | CNC(=O)C1CCc2cccc3c4c(n1c23)CCCCC4 (stereo unspecified) | 0 | – | Reactors/Test group (Rattus norvegicus [5]): 3; ED50 (Rattus norvegicus [3]): 12.9 mg/kg
21 | CN(C)CC1CCc2cccc3c4c(n1c23)CCSC4 (stereo unspecified) | 0 | 0 | –
22 | CN(C)CCC1CCc2cccc3c4c(n1c23)CCSC4 (stereo unspecified) | – | 0 | Reactors/Test group (Rattus norvegicus [8]): 1
23 | CN(C)CCC1CCc2cccc3c4c(n1c23)CCC4 (stereo unspecified) | 0 | 0 | –
24 | CN(C)CC1Cc2cccc3c4c(n(c23)C1)Cc1ccccc1-4 (stereo unspecified) | – | 0 | Reactors/Test group (Rattus norvegicus [8]): 1
25 | CN(C)CC1Cc2cccc3c4c(n(c23)C1)CCCCCC4 (stereo unspecified) | – | 0 | Reactors/Test group (Rattus norvegicus [8]): 1
26 | CN(C)CC1Cc2cccc3c4c(n1c23)CCCCC4 (stereo unspecified) | 0 | 0 | –
27 | CNCC1CCc2cccc3c4c(n1c23)CCCCC4 (stereo unspecified) | 0 | 0 | –
28 | O=C1NC(=O)C(c2ccccc2)(c2ccccc2)N1 [PHENYTOIN] | – | – | ED50 (Rattus norvegicus [3]): 42.3 mg/kg; Reactors/Test group (Rattus norvegicus [9]): 0
